Test results published in patent publication US9956187B2 (priority 2014, dated 2018).
Where a name gives a salt, the structure may show the parent alone.

Experiments:
Sigma 1 [1] = target: T1, Sigma 1 (Homo sapiens, UniProt Q99720); assay: Primary radioligand binding screen; set-up: expressed in transfected cells
Protocol: (§1) Evidence for interaction was based on the inhibition of the reference ligand-binding signal. […] Briefly, 50 μL aliquots of radioactive ligand (5 nM) were added to wells of a 96-well plate, which contained 25 μL of the reference or test ligands. We employed transfected cell lines expressing mainly human (unless otherwise specified) recombinant receptors, monoamine transporters, or ion channels for crude membrane preparation. Detailed information about our membrane preparation is well known in the art and can be obtained from publicly available protocol online. Crude membrane fractions containing the receptors were resuspended in standard binding buffer and 50 μL aliquots added to each well. The reactions were incubated at room temperature for 1.5 hours to allow for radioligand binding equilibration. Bound radioactivity was harvested by rapid filtration through a 0.3% polyethyleneimine-treated, 96-well filter mats using a 96-well Filtermate harvester. The dried filters were treated with melted scintillant and a Microbeta scintillation counter was utilized to measure the radioactivity retained on the filter.
Target sequence in this assay (Q99720 whole entry): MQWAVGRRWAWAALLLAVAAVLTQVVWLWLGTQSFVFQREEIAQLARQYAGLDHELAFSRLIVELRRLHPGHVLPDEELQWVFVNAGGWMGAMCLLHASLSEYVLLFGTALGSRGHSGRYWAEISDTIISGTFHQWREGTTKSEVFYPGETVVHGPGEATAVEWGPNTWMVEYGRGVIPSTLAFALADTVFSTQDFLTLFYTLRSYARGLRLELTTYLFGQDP

[2] = test system: chronic constriction injury (CCI) rats; assay: Tactile allodynia, paw withdrawal threshold in CCI model; format: in vivo, rat; conditions: 3 mg/kg IP daily, days 1-10 after CCI, vs NS group, P<0.05
Protocol: CCI procedures on the sciatic nerve of male SD rats were performed as previously described. Briefly, after rats were anesthetized by i.p. injection of sodium pentobarbital (40 mg/kg), the right sciatic nerve of the mid-thigh level was exposed. Chromic gut 4-0 was loosely tied around the nerve for 4 ligatures with about 1 mm between knots. The ligation was performed to just barely reduce the diameter of sciatic nerve. […] In the sham group, the sciatic nerve was exposed without ligation. The incisions of rats were closed in layers. After recovery from anesthesia, rats were housed individually in the clear plastic cages with soft bedding covered with 3-6 cm of sawdust.
Same volume of normal saline (2 ml) was injected in the other two groups at the same time.
The paw withdrawal threshold (PWT) was used to evaluate mechanical allodynia for nociceptive response with Von Frey filaments. The rats were placed in transparent plexiglass cage with a wire mesh floor. After acclimating to their environments for 30 minutes, each filament was applied perpendicularly to the plantar surface of the right hind paw. The end point was determined as paw withdrawal accompanied by biting, head turning and/or licking. The force (in gram, g) needed for this reaction was recorded. […]

[3] = hydrobromide salt; cited from earlier work
morphine dependent rats = assay: Morphine withdrawal syndrome scoring
Protocol: (1) The same volumes of normal saline (NS) were received subcutaneously in the naïve group. All other interventional drugs are administered by intraperitoneal injection.

Sigma 1 [4] = target: T1, Sigma 1; assay: Molecular target profiling; format: binding
Target sequence in this assay (Q99720 whole entry, species assumed): as the sequence (Q99720 whole entry) above

GABAA = assay: Primary radioligand binding screen; set-up: species or system human; conditions: dezocine 10 μM
Protocol: as §1

kappa opioid receptor = kappa opioid receptor (Homo sapiens, UniProt P41145); format: biochemical; set-up: purchased Millipore (Billerica, Mass.); host or cells: Chem-5 mammalian cell line; conditions: ligand alone
kappa opioid receptor, sequence (P41145 whole entry): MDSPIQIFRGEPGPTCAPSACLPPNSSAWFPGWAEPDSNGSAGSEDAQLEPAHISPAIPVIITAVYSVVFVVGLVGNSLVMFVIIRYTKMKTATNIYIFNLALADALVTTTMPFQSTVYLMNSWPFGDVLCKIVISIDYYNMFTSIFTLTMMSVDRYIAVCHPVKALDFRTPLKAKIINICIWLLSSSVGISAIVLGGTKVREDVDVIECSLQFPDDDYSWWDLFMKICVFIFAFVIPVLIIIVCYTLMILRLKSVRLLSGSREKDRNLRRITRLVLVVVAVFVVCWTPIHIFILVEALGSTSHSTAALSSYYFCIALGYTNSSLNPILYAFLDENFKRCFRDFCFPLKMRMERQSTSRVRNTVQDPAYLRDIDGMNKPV
From the text: Membrane preparations of recombinant human kappa opioid receptor expressed in the mammalian cell line Chem-5 were obtained from Millipore (Billerica, Mass.). The effects of specific kappa opioid receptor ligands on the activation of the recombinant receptor were investigated by measuring G protein activation in vitro.
The assay reports the initial rates of activation of heterotrimeric G proteins (Gαii1β1γ2) on an agonist-bound receptor by measuring the accumulation of [^35S]-GTPγS (non-hydrolyzable analog of GTP) bound to the activated Gαi1 subunit. […] The G protein activation assay was conducted as follows (final concentrations in 50 μL reaction mixture are given in parentheses): the membrane sample was diluted into ice-cold 10 mM 3-(N-morpholino)propanesulfonic acid (MOPS) buffer to reach a protein concentration of 40 ng/μL. 10 μL of the diluted dispersion were dispensed into pre-siliconized glass tubes and mixed with the ligand in MOPS buffer containing 0.1% (w/v) BSA. Upon addition of a mixture of Gαi1 (100 nM) and Gβ1γ2 (500 nM), the tubes were incubated on ice for 30 minutes. The reaction was started by addition of MOPS buffer pH=7.5 (50 mM), EDTA (1 mM), MgCl2 (3 mM), GDP (4 μM), BSA (0.3% w/v), NaCl (100 mM), DTT (1 mM), and [^35S]-GTPγS (5 nM, 1250 Ci/mmol) followed by rapid transfer of the tubes to a water bath at 30° C. The incubation continued for 45 minutes. The reaction was terminated by addition of 2 mL of ice-cold stop solution, TNMg (20 mM Tris-HCl pH=8.0, 100 mM NaCl, and 25 mM MgCl2). The reaction mixture was rapidly filtered through nitrocellulose filters (Millipore). Filters were washed four times with 2 mL each of cold TNMg buffer, dried, placed in scintillation vials filled with ScintiSafe Econo F scintillation liquid (Fisher, Waltham, Mass.), and the radioactivity counted. Duplicate samples corresponding to every ligand concentration point were counted.

SMILES: C[C@@]12CCCCC[C@@H](Cc3ccc(O)cc31)[C@@H]2N [Dezocine, (−)-13β-amino-5,6,7,8,9,10,11,12-octahydro-5α-methyl-5,11-methanobenxocyclodecen-31-ol, hydrobromide]
- inhibition at 10 µM (Sigma 1 [1]): 21.7%
- paw withdrawal threshold (PWT) [2]: increased markedly
- solubility of the salt [3]: 20 mg/mL
- total score of morphine withdrawal symptoms (morphine dependent rats; days 1-7, vs DMSO group, n=12, P<0.01 (FIG. 18)): alleviated the morphine withdrawal syndrome
- total score of morphine withdrawal symptoms (morphine dependent rats; dezocine 5 mg/kg IP, days 1-7, vs NS group, P<0.01): decreased significantly
- interaction with sigma 1 receptor (Sigma 1 [4]): interact with sigma 1 receptor
- % inhibition (GABAA): −10.1%
- G protein activation in the presence of kappa receptor (kappa opioid receptor): no significant G protein activation
